The term IC50 denotes the concentration needed to halve the response being measured. A word on the HC50: it is the concentration that lyses half of the red blood cells.

These results are taken from paper PMC7566913, “Dual Gene Delivery Reagents From Antiproliferative Alkylphospholipids for Combined Antitumor Therapy” (Frontiers in Chemistry, 2020).

Data set [1] relates to H292 cells. Also noted: method as in Gaillard et al., 2019. Particulars: H292, 24 h at 37°C, MTT assay; ref Gaillard et al., 2019; cited from earlier work. (Formazan colour is commonly taken as a measure of viable cells.)
Details of data set [2]: method as in Gaillard et al., 2019. The settings on record: ref Gaillard et al., 2019, cited from earlier work.
Data set [3] has as its system A549 cells. Also noted: method as in Gaillard et al., 2019. The settings on record: A549, 24 h at 37°C, MTT assay; ref Gaillard et al., 2019; cited from earlier work.
In data set [4] the test system is sheep RBC. The settings on record: sheep RBC, 37°C, ref Gaillard et al., 2019, cited from earlier work.
On the set-up of data set [5]: method as in Gaillard et al., 2019. The settings on record: lipoplexes with pCMV-Gluc, N/P 3, 1 molar equivalent of DOPE; ref Gaillard et al., 2019; cited from earlier work.
Details of data set [6]: method as in Gaillard et al., 2019. The settings on record: pyrene fluorescence; ref Gaillard et al., 2019; cited from earlier work.
The test system of data set [7] is 16HBE cells. More on the design: method as in Gaillard et al., 2019. Particulars: 24 h at 37°C, MTT assay, ref Gaillard et al., 2019; cited from earlier work.
The test system of data set [8] is A549 cells. Description: Antiproliferative effect of pUNO1-hTRAIL vs pCMV-Gluc lipoplexes, MTT, A549. It is filed as cell-based, human. The settings on record: N/P 3, 1 eq. DOPE, pDNA 0.3 and 0.4 μg/well. On the procedure:
Cells were treated with lipoplexes prepared from pro-APLs ME12, PE12, and EE12, with increasing dose of pDNA (0.1–0.4 μg per well). The gold standard gene delivery reagent Lipofectamine® 2000 was assayed in parallel for comparison purpose. In order to distinguish the intrinsic cytotoxic effect of the in situ generated APLs from that resulting from TRAIL expression, pCMV-Gluc was assayed in parallel to pUNO1-hTRAIL. Using pCMV-Gluc, the observed cytotoxicity was assumed to result only from the APL antiproliferative activity, whereas results obtained with pUNO1-hTRAIL are a combination of TRAIL activity and APL antiproliferative effect. […] Though the temptation is to take it as an indicator that functional TRAIL was produced, the difference found was not always statistically significant. The activity profile of the three pro-APLs varied according to the cell line. […]
Figure 8 Antiproliferative effect of lipoplexes prepared from ME12 (A), PE12 (B), EE12 (C), and the two DNA plasmids pCMV-Gluc (light bars) and pUNO1-hTRAIL (dark bars), on the three cell lines. […] Lipofectamine®-based lipoplexes (0.1 μg plasmid/well) were prepared according to the optimized experimental conditions determined following the supplier's instructions. Cell viability was measured by the MTT assay. Basal mitochondrial activity measured in untreated cells is set at 100%. […]

The test system of data set [9] is H292 cells. As to the kind of experiment: Cytotoxicity, MTT assay, H292. It is filed as cell-based, human. The settings on record: Homo sapiens, NCI-H292, H292, 24 h at 37°C. On the procedure:
(§1) The cells were exposed for a 24-h period to increasing concentration of the pro-APLs, ranging from 500 nM to 1 mM, and cell viability was assessed using the MTT colorimetric assay (Mosmann, [1983]). For the three cell lines, viability decreased in a dose-dependent manner in response to APLs and pro-APLs (Supplementary Figures 2–4). Using the best-fit regression curve method, the IC50 value (concentration that provokes 50% inhibition of the cell growth) was calculated for each compound (Table 4). The three cell lines responded to the compounds with varying sensitivities. […] This is attributed to enzyme-mediated hydrolysis of the pro-APL compounds in the complemented culture medium or in the intracellular compartment, competing with pure pH-controlled chemical hydrolysis. According to its structure, a pro-APL may or not be a substrate for specific lipases and, thus, may or not be hydrolyzed into the parent cytotoxic compound. […]
(§2) At confluency, cells were released […]
(§3) Cells were seeded into 96-well plates (Becton-Dickinson) at the required density (vide supra) in 100 µL of serum containing culture medium. […]
(§4) Mitochondrial activity measurements (MTT assay) was used to assess cytotoxicity of the compounds.
(§5) Lipid samples were prepared from a lipid film (3.6 µmol of compound evaporated from an ethanolic solution) hydrated with aqueous glucose 5 % and vigorously vortexed for 20 s before serial dilution in aqueous glucose 5 %. For addition of lipid samples to cell culture, part of the culture medium in the culture plates prepared the day before (25 µL) was removed and replaced by lipid samples (25 µL). Negative control was obtained by adding glucose 5 % to the cells instead of lipoplexes.
(§6) After a 24-h incubation period at 37 °C, culture supernatant was removed, cells were carefully washed with PBS and MTT (100 µL, 0.5 mg/mL) in complete culture medium was added. After a 1-h incubation period at 37 °C, the MTT sol ution was removed and DMSO (100 µL) was added to lyse cells and dissolve reduced MTT. Intensity of MTT reduction was then evaluated by measuring absorbance at 492 nm. Viability of cells treated with lipids or lipoplexes was expressed as the percentage of the absorbance measured in untreated cells. Value for each sample is the mean of triplicate determinations (± SD). IC50 values were determined within the 95 % confidence interval using nonlinear regression analysis with the GraphPad Prism software (GraphPad Software, San […]
(§7) All data are representative of a triplicate determination and are presented as the mean ± SD.
(§8) Statistical significance between treatments was assessed by one-way analysis of variance (ANOVA) followed by the Dunnett multiple comparison test, using the Kaleidagraph 4.5 software (Synergy Software, Reading, PA, USA). Data were considered as statistically significant for p value less than

Data set [10] is described as follows: CMC/CAC by pyrene fluorescent probe technique in ultrapure water. Format: physicochemical. Particulars: pyrene fluorescence. On the procedure: The pro-APL molecules have been specifically engineered so they can be metabolized in situ under a biological stimulus to revert to the parent APL with antiproliferative activity. […] We thus aimed to determine the self-assembly properties of the APL prodrugs. […] Pyrene is a probe which fluorescence is sensitive to the polarity of the solubilizing medium. […] Fluorescence measurements were carried out in ultrapure water and data obtained for the various APLs and their prodrugs are shown in Table 2.
Pro-APLs Self-Assembly Properties
Starting from a lipid film, compounds were […]

In data set [11] the test system is sheep RBC. As to the kind of experiment: Hemolytic activity, red blood cell leakage assay. The settings on record: 1 h, 37°C.
Procedure: To evaluate this hypothesis, the hemolytic activity of the APLs and pro-APLs was measured. Sheep RBC were incubated for 1 h with escalating doses of aqueous dispersion of the compounds at 37°C. At the end of the incubation period, hemoglobin leakage was determined spectrophotometrically.
Thus, in order to better characterize the hemolytic effect of the pro-APLs, the incubation period has been extended and release of hemoglobin was measured after 24 h.
Red blood cell (RBC) leakage assay was carried out according to a previously described procedure
(Evans et al, 2013). RBC were prepared from defibrinated sheep blood. Briefly, blood sample (5 mL) was centrifuged at 500 x g for 5 min. After removal of the yellow upper layer, an equal volume of
For data set [12], the system named is A549 cells. Description: Cytotoxicity, MTT assay, A549. The settings on record: Homo sapiens, A549, 24 h at 37°C. Format: cell-based, human. On the procedure: as §1, §2, §3, §4, §5, §6, §7, §8
The next data set has as its system red blood cells (RBC). The settings on record: cited from earlier work.
The conditions of data set [13]: Langmuir trough method, cited from earlier work.
The subject of data set [14] is 16HBE cells. Description: Cytotoxicity, MTT assay, 16HBE. Format: cell-based, human. The settings on record: Homo sapiens, 24 h at 37°C. On the procedure: as §1, §2, §3, §4, §5, §6, §7, §8
Details of data set [15]: method as in Yaseen et al., 2005. The settings on record: Du Noüy ring method; ref Yaseen et al., 2005; cited from earlier work.

Where two headings read alike, the source gives them in different places.

With `CCCCCCCC/C=C\CCCCCCCCCCCCOP(=O)(OCCC[N+](C)(C)C)OCOC(=O)CCCCCCCCCCC` (stereo not drawn) [EE12], the IC50 with H292 cells [1] was 125 ± 26 µM; with A549 cells [3], 151 ± 42 µM; in the data set on 16HBE cells [7] it was 144 ± 66 µM. Also, the “H120 (hydrolysis rate after a 120-h incubation period)” value was 2% in data set [2] (pH 4.5) and 17% in data set [2] (pH 7.4). For the same compound, the entries for the “HA200 (hemolytic activity at 200 μM)” value in the data set on sheep RBC [4] (1 h) and in the data set on sheep RBC [4] (24 h) were < 1% and 18.6 ± 1.5%, respectively. Moreover, the “Particle size of lipoplexes” value in [5] was 141 ± 5 nm. Moreover, the “CMC (APLs) / CAC (pro-APLs)” value in data set [6] is 0.6 ± 0.2 µM. In addition, in the data set with A549 cells [8], the TRAIL-induced cell death is 15-17%.
For `CCCCCCCCCCCCCCCCCCOP(=O)([O-])OC1CC[N+](C)(C)CC1` [Perifosine, reference compound], the results for the IC50 with H292 cells [9], with A549 cells [12] and in the data set with 16HBE cells [14] were 77 ± 3 µM, 127 ± 39 µM and 116 ± 33 µM, respectively. The “CMC (APLs) / CAC (pro-APLs)” value in [10] amounted to 4.4 ± 1.7 µM; in data set [10] (listed as perifosine), 4.4 µM. For the same compound, the “HA200 (hemolytic activity at 200 μM)” value in the data set with sheep RBC [11] was 85.1 ± 4.0%. The “HC50 (concentration provoking 50% hemolysis)” value in the data set on sheep RBC [11] was 46 µM. In addition, in the data set on red blood cells (RBC) (24-h exposure to 5.4 μM, ref Egler and Lang, 2017), the Hemolysis entry is reported as “ca. 30%”. Also, in [13] (ref Mravljak et al., 2005), the CMC was 2.5 µM.
Turning to `CCCCCCCCCCCCCCCCOP(=O)([O-])OCC[N+](C)(C)C` [Miltefosine, reference compound], the IC50 stood at 70 ± 9 µM in the data set with H292 cells [9], 77 ± 15 µM in the data set with A549 cells [12] and 73 ± 8 µM with 16HBE cells [14]. Moreover, the “CMC (APLs) / CAC (pro-APLs)” value turned out to be 11.2 ± 2.3 µM in data set [10] and 11.2 µM in data set [10] (listed as miltefosine). In addition, the “HA200 (hemolytic activity at 200 μM)” value in the data set with sheep RBC [11] is recorded as 90.8 ± 1.5%. For the same compound, the “HC50 (concentration provoking 50% hemolysis)” value with sheep RBC [11] came to 43 µM. Further, the HC50 was 34 to 51 µM in the data set with red blood cells (RBC) (depending on the hematocrit, ref Alonso and Alonso, 2016); 41 µM in the data set with red blood cells (RBC) (ref Petit et al., 2019). Also, the CMC is 2.5 to 3.0 µM in data set [13] (ref Rakotomanga et al., 2004) and 12 µM in data set [15].
